Measurements from US20230310428A1, “EGFR INHIBITOR AND PREPARATION METHOD AND USE THEREOF” (HONGYUN BIOTECH CO., LTD., priority 2020, published 2023).

Legend:
Experiment in all cases: Growth inhibitory activity of compounds on BaF3 cell lines stably transfected with kinase (MTS, 48 h)
Assay type in all cases: cell-based
[1] = target: T1, various mutants of kinase EGFR (BaF3 cell lines stably transfected with kinase) (Homo sapiens, UniProt P00533, T790M, form not given); settings: BaF3 cells stably transfected with EGFR Δ19Del/T790M, read-out: IC50, growth inhibition, Δ19Del/T790M
T1 construct: other: BaF3 cells stably transfected with EGFR Δ19Del/T790M; MTS, 48 h; other: BaF3 cell line stably transfected with EGFR Δ19Del/T790M; MTS, 48
Protocol: (§1) The activity of compounds against various mutants of kinase EGFR was evaluated by their effect of inhibiting growth of BaF3 cell lines stably transfected with kinase. The specific test method was given as follows:
(§2) 1) Culture medium: DMEM (Dulbecco’s modified eagle medium) or RPMI 1640 (containing 10% fetal bovine serum, 100 µg/mL ampicillin, 100 µg/mL streptomycin).
(§3) 2) Reagent: MTS reaction solution (containing 2 mg/mL of MTS [3-(4,5-dimethylthiazol-2-yl)-5-(3-carboxymethoxyphenyl)-2-(4-sulfophenyl)-2H-tetrazoliu m, inner Salt]; 100 µg/mL of PES ([…])).
(§4) 3) Compound test: cells were incubated into a 96-well culture plate, the volume of cytosol was 90 µL, and then 10 µL of the compound at each gradient concentration was added. That is, the highest concentration was 10 µM, which was diluted stepwise by ⅓, and 8 concentration points were set in total; 0.1% DMSO (dimethyl sulfoxide) was contained in the system. The cell plate with uniformly mixed compound was cultured in a cell culture incubator (37° C.; 5% CO2) for 48 h, then 20 µL of MTS reaction solution was added, uniformly mixed and incubated in the cell culture incubator (37° C.; 5% CO2) for 1-4 h. OD values at 490 nm were measured by a microplate reader (VARIOSKAN FLASH, Thermo). Two parallels were set in each group of experiments, with 0.1% (a final concentration) DMSO as a negative control, and a culture medium without cells and compounds as a blank control. The cell growth inhibition rate was calculated by the following formula: […]
(§5) 4) IC50 calculation: The semi-inhibitory concentration of the compounds acting on cells was calculated using GradPad Prism 5 software according to the measured cell growth inhibition rate.

[2] = target: T2, various mutants of kinase EGFR (BaF3 cell lines stably transfected with kinase) (Homo sapiens, UniProt P00533, C797S/L858R/T790M); settings: BaF3 cells stably transfected with EGFR L858R/T790M/C797S, read-out: IC50, growth inhibition, L858R/T790M/C797S
T2 construct: expressed in transfected cells; host or cells: BaF3
T2 sequence (P00533 25-1210 T790M/C797S/L858R): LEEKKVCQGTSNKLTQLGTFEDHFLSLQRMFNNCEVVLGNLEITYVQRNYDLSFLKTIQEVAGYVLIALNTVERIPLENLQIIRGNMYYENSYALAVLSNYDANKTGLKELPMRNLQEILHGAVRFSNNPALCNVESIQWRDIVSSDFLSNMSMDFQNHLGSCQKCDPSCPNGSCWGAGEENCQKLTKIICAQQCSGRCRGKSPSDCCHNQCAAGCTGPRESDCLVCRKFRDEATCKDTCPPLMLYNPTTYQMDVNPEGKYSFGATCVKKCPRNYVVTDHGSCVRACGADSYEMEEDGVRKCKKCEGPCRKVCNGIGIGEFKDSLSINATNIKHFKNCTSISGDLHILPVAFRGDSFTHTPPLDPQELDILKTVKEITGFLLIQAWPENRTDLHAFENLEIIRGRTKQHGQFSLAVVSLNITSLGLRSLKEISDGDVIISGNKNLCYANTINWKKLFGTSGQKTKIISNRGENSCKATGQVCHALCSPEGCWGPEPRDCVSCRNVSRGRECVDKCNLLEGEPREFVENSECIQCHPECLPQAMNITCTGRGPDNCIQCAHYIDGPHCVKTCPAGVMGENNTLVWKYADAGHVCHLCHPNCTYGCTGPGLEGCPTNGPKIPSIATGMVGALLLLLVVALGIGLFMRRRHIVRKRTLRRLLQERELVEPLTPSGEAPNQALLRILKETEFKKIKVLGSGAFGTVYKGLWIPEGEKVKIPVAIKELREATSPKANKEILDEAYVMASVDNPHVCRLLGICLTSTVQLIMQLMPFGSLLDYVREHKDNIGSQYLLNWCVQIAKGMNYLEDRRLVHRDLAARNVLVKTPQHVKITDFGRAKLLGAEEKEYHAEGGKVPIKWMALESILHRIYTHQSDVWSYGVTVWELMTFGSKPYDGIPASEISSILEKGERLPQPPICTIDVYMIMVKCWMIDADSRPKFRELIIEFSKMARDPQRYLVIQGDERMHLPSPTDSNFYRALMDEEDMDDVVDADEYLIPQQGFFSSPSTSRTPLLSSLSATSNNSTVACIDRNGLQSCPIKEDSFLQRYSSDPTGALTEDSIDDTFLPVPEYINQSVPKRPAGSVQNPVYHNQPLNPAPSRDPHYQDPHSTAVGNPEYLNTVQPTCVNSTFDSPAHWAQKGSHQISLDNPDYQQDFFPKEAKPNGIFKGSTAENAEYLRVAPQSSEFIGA
Protocol: as §1, §2, §3, §4, §5

[3] = target: T3, various mutants of kinase EGFR (BaF3 cell lines stably transfected with kinase) (Homo sapiens, UniProt P00533, T790M/C797S, form not given); settings: BaF3 cells stably transfected with EGFR Δ19Del/T790M/C797S, read-out: IC50, growth inhibition, Δ19Del/T790M/C797S
T3 construct: other: BaF3 cells stably transfected with EGFR Δ19Del/T790M/C797S; MTS, 48; other: BaF3 cell line stably transfected with EGFR Δ19Del/T790M/C7
Protocol: as §1, §2, §3, §4, §5

[4] = target: T4, various mutants of kinase EGFR (BaF3 cell lines stably transfected with kinase) (Homo sapiens, UniProt P00533); settings: BaF3 cells stably transfected with EGFR Δ19Del, read-out: IC50, growth inhibition, Δ19Del
T4 construct: other: BaF3 cells stably transfected with EGFR Δ19Del; MTS, 48 h; other: BaF3 cell line stably transfected with EGFR Δ19Del
T4 sequence (P00533 with tags, fused parts or gaps DEL746-750): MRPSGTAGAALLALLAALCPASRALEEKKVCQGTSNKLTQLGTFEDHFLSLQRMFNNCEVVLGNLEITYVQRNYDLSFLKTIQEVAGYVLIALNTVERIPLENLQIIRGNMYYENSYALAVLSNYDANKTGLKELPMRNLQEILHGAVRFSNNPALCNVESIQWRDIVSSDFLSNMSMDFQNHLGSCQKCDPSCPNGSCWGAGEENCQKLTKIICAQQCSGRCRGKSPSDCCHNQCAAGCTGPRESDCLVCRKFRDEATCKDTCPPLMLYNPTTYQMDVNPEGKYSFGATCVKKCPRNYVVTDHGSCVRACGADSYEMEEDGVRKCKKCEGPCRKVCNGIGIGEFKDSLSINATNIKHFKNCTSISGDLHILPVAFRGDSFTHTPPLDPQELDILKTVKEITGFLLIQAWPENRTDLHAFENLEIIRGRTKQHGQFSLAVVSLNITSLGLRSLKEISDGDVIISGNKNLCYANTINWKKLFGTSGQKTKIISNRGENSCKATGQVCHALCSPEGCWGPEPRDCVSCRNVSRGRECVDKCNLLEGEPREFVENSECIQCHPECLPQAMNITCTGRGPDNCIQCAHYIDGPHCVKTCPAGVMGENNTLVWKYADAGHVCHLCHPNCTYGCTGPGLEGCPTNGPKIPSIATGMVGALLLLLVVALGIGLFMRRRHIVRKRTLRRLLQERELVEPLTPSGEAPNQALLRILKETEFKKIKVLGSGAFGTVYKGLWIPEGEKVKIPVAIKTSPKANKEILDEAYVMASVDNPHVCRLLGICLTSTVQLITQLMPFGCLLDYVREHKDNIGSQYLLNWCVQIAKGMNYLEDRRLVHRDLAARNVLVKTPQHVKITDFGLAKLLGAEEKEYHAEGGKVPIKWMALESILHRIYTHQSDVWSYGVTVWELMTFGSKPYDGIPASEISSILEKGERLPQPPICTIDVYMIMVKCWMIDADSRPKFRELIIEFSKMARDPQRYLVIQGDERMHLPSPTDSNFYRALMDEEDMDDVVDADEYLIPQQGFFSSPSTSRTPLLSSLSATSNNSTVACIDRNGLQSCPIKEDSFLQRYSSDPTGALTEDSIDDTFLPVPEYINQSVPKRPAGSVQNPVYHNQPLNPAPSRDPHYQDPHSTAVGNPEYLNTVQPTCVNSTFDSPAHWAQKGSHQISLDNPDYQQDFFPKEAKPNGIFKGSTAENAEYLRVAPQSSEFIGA
Protocol: as §1, §2, §3, §4, §5

[5] = target: T5, various mutants of kinase EGFR (BaF3 cell lines stably transfected with kinase) (Homo sapiens, UniProt P00533, L858R/T790M); settings: BaF3 cells stably transfected with EGFR L858R/T790M, read-out: IC50, growth inhibition, L858R/T790M
T5 construct: expressed in transfected cells; host or cells: BaF3
T5 sequence (P00533 25-1210 T790M/L858R): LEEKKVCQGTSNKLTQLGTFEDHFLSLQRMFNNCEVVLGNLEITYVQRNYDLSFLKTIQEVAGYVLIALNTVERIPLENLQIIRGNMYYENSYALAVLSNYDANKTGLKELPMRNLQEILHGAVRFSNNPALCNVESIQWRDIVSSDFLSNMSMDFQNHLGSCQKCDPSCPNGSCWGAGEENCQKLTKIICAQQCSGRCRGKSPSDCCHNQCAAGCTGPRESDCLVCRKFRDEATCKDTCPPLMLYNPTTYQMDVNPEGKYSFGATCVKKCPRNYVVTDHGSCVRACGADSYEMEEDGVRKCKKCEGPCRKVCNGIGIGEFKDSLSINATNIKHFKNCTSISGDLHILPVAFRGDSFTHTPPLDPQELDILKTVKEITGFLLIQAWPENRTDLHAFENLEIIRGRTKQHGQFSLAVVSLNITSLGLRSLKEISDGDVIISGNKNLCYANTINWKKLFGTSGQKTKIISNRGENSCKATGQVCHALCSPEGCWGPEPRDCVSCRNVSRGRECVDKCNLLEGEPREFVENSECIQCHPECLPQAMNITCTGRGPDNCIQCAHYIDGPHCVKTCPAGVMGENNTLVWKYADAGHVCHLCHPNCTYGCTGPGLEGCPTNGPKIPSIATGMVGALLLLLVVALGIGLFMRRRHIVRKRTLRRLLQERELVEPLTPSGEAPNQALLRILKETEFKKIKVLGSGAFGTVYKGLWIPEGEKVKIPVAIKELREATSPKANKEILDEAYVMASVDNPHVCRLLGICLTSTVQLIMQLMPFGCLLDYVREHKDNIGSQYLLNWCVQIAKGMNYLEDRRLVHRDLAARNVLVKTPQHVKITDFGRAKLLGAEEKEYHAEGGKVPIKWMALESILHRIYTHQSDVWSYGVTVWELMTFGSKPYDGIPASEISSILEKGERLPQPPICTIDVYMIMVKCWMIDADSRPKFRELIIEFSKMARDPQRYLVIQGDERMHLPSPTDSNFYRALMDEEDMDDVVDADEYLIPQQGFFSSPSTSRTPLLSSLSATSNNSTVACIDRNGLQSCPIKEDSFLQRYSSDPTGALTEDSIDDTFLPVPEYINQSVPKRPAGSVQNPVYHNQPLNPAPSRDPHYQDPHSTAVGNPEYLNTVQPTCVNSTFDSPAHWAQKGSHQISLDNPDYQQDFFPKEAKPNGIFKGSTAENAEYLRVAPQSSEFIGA
Protocol: as §1, §2, §3, §4, §5

[6] = target: T6, various mutants of kinase EGFR (BaF3 cell lines stably transfected with kinase) (Homo sapiens, UniProt P00533, L858R); settings: BaF3 cells stably transfected with EGFR L858R, read-out: IC50, growth inhibition, L858R
T6 construct: expressed in transfected cells; host or cells: BaF3
T6 sequence (P00533 25-1210 L858R): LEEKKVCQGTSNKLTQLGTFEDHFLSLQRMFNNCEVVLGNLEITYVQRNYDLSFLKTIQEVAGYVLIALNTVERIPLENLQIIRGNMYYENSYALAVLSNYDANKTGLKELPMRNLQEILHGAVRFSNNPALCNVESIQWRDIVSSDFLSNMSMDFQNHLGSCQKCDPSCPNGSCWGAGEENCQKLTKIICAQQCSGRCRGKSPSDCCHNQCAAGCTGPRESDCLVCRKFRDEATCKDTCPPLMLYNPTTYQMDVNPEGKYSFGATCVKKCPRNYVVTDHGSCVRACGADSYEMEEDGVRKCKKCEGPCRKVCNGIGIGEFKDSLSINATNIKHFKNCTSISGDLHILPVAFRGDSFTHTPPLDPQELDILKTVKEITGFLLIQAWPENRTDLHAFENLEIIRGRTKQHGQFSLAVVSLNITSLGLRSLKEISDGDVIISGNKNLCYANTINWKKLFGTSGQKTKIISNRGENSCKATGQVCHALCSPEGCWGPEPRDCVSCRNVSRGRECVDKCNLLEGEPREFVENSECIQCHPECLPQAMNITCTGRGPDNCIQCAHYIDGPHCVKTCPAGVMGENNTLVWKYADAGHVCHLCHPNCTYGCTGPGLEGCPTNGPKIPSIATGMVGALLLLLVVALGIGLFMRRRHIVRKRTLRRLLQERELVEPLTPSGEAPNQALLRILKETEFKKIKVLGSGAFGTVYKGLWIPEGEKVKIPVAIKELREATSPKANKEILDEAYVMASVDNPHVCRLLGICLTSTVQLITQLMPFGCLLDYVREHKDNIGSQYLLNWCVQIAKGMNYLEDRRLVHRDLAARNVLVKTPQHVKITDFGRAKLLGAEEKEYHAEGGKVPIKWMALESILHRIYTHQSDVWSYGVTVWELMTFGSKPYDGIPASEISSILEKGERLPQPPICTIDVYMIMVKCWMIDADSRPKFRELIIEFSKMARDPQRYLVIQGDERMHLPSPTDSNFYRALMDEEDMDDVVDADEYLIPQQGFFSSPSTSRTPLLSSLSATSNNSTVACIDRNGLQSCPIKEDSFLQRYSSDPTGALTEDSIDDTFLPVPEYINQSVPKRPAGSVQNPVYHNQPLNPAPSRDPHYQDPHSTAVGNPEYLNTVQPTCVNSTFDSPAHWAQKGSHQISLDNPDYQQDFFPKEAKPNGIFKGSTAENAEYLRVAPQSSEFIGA
Protocol: as §1, §2, §3, §4, §5

| SMILES | IC50 [1] | IC50 [2] | IC50 [3] | IC50 [4] | IC50 [5] | IC50 [6] |
| --- | --- | --- | --- | --- | --- | --- |
| COc1cc(N2CCC(N3CCN(C)CC3)CC2)c(C)cc1Nc1ncc(C#N)c(Nc2ccc3nccnc3c2N(C)S(C)(=O)=O)n1 [Compound I-28] | 50 to 500 nM | 50 to 500 nM | 50 to 500 nM | 50 to 500 nM | 50 to 500 nM | 50 to 500 nM |
| CCc1cc(Nc2ncc(C#N)c(Nc3ccc4nccnc4c3N(C)S(C)(=O)=O)n2)c(OC)cc1N1CCC(N2CCN(C)CC2)CC1 [Compound I-29] | 50 to 500 nM | ≤ 50 nM | 50 to 500 nM | 50 to 500 nM | 50 to 500 nM | 50 to 500 nM |
| COc1cc(N2CCC(N3CCN(C)CC3)CC2)ccc1Nc1ncc([N+](=O)[O-])c(Nc2ccc3nccnc3c2N(C)S(C)(=O)=O)n1 [Compound I-30] | 500 to 2500 nM | 500 to 2500 nM | 50 to 500 nM | 500 to 2500 nM | 50 to 500 nM | 500 to 2500 nM |
| COc1cc(N2CCC(N3CCN(C)CC3)CC2)c(C)cc1Nc1ncc([N+](=O)[O-])c(Nc2ccc3nccnc3c2N(C)S(C)(=O)=O)n1 [Compound I-31] | 50 to 500 nM | ≤ 50 nM | ≤ 50 nM | 50 to 500 nM | ≤ 50 nM | ≤ 50 nM |
| CCc1cc(Nc2ncc([N+](=O)[O-])c(Nc3ccc4nccnc4c3N(C)S(C)(=O)=O)n2)c(OC)cc1N1CCC(N2CCN(C)CC2)CC1 [Compound I-32] | ≤ 50 nM | ≤ 50 nM | ≤ 50 nM | ≤ 50 nM | ≤ 50 nM | ≤ 50 nM |
| COc1cc(N2CCC(N3CCN(C)CC3)CC2)ccc1Nc1ncc(C(F)(F)F)c(Nc2ccc3nccnc3c2N(C)S(C)(=O)=O)n1 [Compound I-33] | ≤ 50 nM | 50 to 500 nM | ≤ 50 nM | 50 to 500 nM | ≤ 50 nM | ≤ 50 nM |
| COc1cc(N2CCC(N3CCN(C)CC3)CC2)c(C)cc1Nc1ncc(C(F)(F)F)c(Nc2ccc3nccnc3c2N(C)S(C)(=O)=O)n1 [Compound I-34] | ≤ 50 nM | ≤ 50 nM | ≤ 50 nM | ≤ 50 nM | ≤ 50 nM | ≤ 50 nM |
| CCc1cc(Nc2ncc(C(F)(F)F)c(Nc3ccc4nccnc4c3N(C)S(C)(=O)=O)n2)c(OC)cc1N1CCC(N2CCN(C)CC2)CC1 [Compound I-35] | ≤ 50 nM | ≤ 50 nM | ≤ 50 nM | ≤ 50 nM | ≤ 50 nM | ≤ 50 nM |
| Cc1cc(Nc2ncc(Br)c(Nc3ccc4nccnc4c3N(C)S(C)(=O)=O)n2)c(OC(C)C)cc1C1CCN(C)CC1 [Compound I-37] | 50 to 500 nM | 50 to 500 nM | ≤ 50 nM | 500 to 2500 nM | 50 to 500 nM | 500 to 2500 nM |
| COc1cc(N2CCN(C)CC2)ccc1Nc1ncc(Br)c(Nc2ccc3nccnc3c2N(C)S(C)(=O)=O)n1 [Compound I-38] | ≤ 50 nM | ≤ 50 nM | ≤ 50 nM | 50 to 500 nM | ≤ 50 nM | 50 to 500 nM |
| CCOc1cc(N2CCN(C)CC2)ccc1Nc1ncc(Br)c(Nc2ccc3nccnc3c2N(C)S(C)(=O)=O)n1 [Compound I-39] | 50 to 500 nM | ≤ 50 nM | ≤ 50 nM | 500 to 2500 nM | 50 to 500 nM | 500 to 2500 nM |
| CN1CCN(c2ccc(Nc3ncc(Br)c(Nc4ccc5nccnc5c4N(C)S(C)(=O)=O)n3)cc2)CC1 [Compound I-40] | ≤ 50 nM | ≤ 50 nM | ≤ 50 nM | ≤ 50 nM | ≤ 50 nM | ≤ 50 nM |
| COc1cc(N2CCC(N3CCCC3)CC2)ccc1Nc1ncc(Br)c(Nc2ccc3nccnc3c2N(C)S(C)(=O)=O)n1 [Compound I-41] | ≤ 50 nM | ≤ 50 nM | ≤ 50 nM | ≤ 50 nM | ≤ 50 nM | ≤ 50 nM |
| COc1cc(N2CCC(N(C)C)C2)ccc1Nc1ncc(Br)c(Nc2ccc3nccnc3c2N(C)S(C)(=O)=O)n1 (stereo not drawn) [Compound I-43] | ≤ 50 nM | ≤ 50 nM | ≤ 50 nM | 50 to 500 nM | ≤ 50 nM | 50 to 500 nM |
